# Experiments:
# Test in all cases: radiometric kinase profiling (33 PanQinase)
# Assay type in all cases: biochemical
# [1] = target: T1, GRK6 (Homo sapiens, UniProt P43250); settings: read-out: Inhibitory effect (%) GRK6
# T1 construct: purchased ProQinase (33PanQinase Activity Assay)
# Outline: (§1)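 Enzyme/substrate mixes were incubated with [γ-33P]-ATP and compound (added as a 0.1 μM solution in 10% DMSO) at 30 °C for 60 min, then stopped with H3PO4 and washed with NaCl. 33P incorporation was scintillation-counted, and residual activity (%) was normalized to untreated control and background.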
# [2] = target: T2, HIPK1 (Homo sapiens, UniProt Q86Z02); settings: read-out: Inhibitory effect (%) HIPK1
# T2 construct: purchased ProQinase (33PanQinase Activity Assay)
# T2 sequence (Q86Z02 whole entry): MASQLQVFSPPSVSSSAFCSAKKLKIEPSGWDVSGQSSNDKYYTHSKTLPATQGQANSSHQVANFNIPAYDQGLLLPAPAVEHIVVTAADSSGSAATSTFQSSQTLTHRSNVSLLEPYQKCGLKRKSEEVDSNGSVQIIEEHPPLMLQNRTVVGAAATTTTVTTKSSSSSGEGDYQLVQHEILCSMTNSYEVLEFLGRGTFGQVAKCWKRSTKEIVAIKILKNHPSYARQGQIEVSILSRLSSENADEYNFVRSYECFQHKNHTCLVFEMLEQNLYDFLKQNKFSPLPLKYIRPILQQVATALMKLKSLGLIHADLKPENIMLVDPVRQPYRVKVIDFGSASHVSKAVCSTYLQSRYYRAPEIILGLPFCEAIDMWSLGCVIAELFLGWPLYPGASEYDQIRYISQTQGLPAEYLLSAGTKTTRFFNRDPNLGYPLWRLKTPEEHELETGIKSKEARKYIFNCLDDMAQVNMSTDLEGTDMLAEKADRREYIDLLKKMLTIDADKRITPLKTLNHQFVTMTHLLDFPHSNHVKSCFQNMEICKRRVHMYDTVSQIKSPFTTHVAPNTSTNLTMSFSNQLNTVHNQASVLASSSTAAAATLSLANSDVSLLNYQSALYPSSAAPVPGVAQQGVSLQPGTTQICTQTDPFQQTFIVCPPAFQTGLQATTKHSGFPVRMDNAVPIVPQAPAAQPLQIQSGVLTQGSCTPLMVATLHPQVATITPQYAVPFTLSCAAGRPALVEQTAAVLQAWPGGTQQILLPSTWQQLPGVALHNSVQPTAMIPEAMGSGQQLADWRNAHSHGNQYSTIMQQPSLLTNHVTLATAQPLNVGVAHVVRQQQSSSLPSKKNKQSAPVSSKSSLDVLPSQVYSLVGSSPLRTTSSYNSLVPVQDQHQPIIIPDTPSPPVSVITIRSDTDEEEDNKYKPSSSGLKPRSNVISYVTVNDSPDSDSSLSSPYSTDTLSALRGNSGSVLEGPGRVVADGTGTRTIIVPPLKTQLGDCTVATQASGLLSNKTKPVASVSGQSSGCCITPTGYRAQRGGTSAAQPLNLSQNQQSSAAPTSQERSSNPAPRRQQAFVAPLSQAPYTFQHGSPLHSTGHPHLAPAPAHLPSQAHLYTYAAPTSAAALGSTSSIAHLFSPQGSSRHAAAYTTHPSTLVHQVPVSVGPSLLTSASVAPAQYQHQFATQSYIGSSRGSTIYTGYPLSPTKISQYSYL
# Outline: as §1
# [3] = target: T3, PRKD2 (Homo sapiens, UniProt Q9BZL6); settings: read-out: Inhibitory effect (%) PRKD2
# T3 construct: purchased ProQinase (33PanQinase Activity Assay)
# T3 sequence (Q9BZL6 1-878): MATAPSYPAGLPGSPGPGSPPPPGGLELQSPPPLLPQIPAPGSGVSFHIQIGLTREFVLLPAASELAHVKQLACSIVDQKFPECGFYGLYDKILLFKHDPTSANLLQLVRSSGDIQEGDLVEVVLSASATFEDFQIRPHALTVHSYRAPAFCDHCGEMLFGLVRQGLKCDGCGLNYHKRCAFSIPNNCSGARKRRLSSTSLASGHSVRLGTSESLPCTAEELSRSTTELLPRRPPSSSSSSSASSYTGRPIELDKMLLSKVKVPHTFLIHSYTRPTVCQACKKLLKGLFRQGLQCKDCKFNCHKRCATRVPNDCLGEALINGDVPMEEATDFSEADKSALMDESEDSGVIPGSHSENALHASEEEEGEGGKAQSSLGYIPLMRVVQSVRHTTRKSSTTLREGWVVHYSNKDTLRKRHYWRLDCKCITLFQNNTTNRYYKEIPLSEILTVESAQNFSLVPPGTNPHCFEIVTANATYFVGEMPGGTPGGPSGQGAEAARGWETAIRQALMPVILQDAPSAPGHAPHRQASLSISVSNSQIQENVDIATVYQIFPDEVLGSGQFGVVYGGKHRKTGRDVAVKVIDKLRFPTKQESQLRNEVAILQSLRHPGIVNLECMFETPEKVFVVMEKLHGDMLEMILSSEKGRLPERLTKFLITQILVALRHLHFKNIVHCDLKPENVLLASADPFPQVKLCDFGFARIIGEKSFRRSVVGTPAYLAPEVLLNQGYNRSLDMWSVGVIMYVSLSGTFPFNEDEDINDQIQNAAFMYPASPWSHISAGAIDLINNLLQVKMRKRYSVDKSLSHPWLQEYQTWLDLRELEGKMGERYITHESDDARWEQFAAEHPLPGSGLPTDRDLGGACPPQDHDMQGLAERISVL
# Outline: as §1
# [4] = target: T4, MAPK9 (Homo sapiens, UniProt P45984); settings: read-out: Inhibitory effect (%) MAPK9
# T4 construct: purchased ProQinase (33PanQinase Activity Assay)
# T4 sequence (P45984 whole entry): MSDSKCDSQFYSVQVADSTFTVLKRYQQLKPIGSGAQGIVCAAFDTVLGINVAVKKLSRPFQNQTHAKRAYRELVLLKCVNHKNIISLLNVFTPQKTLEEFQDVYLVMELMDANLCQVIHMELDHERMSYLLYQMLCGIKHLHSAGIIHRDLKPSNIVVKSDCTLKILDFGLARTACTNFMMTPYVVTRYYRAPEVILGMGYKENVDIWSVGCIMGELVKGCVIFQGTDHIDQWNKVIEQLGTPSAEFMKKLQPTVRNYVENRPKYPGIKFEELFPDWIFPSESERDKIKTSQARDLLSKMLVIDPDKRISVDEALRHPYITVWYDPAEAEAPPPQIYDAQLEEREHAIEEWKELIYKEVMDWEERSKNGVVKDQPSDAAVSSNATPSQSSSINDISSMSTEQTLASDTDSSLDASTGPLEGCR
# Outline: as §1
# [5] = target: T5, AURKB (Homo sapiens, UniProt Q96GD4); settings: read-out: Inhibitory effect (%) AURKB
# T5 construct: purchased Proqinase, Germany
# T5 sequence (Q96GD4 whole entry): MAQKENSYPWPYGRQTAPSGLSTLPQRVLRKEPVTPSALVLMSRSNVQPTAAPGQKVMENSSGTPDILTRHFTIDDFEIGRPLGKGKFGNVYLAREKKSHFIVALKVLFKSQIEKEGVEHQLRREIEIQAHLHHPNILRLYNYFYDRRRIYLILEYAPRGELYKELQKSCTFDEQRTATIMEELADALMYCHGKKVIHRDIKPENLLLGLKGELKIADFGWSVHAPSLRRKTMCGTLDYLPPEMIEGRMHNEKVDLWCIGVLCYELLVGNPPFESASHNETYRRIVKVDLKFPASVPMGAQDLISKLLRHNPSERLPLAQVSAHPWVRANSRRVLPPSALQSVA
# Outline: as §1
# [6] = target: T6, PLK1 (Homo sapiens, UniProt P53350); settings: read-out: Inhibitory effect (%) PLK1
# T6 construct: purchased ProQinase (33PanQinase Activity Assay)
# T6 sequence (P53350 whole entry): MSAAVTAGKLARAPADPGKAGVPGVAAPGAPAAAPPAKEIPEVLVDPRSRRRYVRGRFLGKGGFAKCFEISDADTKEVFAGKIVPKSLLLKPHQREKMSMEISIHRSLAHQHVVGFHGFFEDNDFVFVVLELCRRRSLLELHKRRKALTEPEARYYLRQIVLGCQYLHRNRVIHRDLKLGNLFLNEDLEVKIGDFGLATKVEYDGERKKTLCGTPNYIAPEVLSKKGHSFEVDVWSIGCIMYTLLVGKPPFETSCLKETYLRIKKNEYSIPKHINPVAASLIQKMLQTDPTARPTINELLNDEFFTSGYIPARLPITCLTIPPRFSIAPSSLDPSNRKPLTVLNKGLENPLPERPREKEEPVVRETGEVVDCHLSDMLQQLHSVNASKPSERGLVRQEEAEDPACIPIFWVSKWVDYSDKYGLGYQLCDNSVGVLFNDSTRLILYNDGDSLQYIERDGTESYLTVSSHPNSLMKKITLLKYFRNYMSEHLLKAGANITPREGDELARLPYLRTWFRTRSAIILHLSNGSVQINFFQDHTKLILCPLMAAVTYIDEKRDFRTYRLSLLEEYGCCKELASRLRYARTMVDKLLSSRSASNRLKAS
# Outline: as §1
# [7] = target: T7, ROCK2 (Homo sapiens, UniProt O75116); settings: read-out: Inhibitory effect (%) ROCK2
# T7 construct: purchased ProQinase (33PanQinase Activity Assay)
# T7 sequence (O75116 whole entry): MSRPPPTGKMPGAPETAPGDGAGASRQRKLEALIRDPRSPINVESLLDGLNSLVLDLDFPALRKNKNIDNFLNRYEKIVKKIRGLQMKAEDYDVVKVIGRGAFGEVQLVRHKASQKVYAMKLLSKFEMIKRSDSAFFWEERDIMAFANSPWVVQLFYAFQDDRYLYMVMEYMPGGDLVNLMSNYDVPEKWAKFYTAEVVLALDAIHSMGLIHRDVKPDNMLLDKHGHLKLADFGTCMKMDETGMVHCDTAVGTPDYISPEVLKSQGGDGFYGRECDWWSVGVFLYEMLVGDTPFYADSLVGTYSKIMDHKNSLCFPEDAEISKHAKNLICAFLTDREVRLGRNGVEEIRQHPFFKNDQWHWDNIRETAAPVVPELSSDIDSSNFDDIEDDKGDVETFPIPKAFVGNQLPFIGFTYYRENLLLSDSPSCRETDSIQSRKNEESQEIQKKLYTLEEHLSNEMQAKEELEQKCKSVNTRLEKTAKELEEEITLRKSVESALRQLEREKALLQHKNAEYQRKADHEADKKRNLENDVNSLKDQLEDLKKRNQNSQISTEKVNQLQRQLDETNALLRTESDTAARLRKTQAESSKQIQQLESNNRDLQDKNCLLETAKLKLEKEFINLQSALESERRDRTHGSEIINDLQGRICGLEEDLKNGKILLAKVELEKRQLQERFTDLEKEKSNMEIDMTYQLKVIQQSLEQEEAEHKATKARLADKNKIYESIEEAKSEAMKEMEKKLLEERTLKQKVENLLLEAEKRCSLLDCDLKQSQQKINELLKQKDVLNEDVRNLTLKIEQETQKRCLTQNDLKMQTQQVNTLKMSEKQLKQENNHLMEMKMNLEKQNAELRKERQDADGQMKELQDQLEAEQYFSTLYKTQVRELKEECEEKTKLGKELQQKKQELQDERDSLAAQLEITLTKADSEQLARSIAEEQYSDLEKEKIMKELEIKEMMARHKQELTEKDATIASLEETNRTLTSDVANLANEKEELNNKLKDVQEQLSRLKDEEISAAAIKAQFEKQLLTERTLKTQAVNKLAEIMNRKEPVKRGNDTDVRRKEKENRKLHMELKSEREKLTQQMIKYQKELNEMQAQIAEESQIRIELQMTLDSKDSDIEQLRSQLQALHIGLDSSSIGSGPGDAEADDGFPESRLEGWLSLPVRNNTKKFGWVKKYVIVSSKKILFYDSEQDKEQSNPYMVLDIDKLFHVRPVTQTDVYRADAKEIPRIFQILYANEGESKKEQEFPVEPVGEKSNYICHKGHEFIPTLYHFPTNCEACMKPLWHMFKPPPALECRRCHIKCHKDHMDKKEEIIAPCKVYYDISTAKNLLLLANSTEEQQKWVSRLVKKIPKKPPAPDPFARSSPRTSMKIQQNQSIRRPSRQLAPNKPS
# Outline: as §1
# [8] = target: T8, DCLK2 (Homo sapiens, UniProt Q8N568); settings: read-out: Inhibitory effect (%) DCLK2
# T8 construct: purchased Proqinase, Germany
# T8 sequence (Q8N568 1-766): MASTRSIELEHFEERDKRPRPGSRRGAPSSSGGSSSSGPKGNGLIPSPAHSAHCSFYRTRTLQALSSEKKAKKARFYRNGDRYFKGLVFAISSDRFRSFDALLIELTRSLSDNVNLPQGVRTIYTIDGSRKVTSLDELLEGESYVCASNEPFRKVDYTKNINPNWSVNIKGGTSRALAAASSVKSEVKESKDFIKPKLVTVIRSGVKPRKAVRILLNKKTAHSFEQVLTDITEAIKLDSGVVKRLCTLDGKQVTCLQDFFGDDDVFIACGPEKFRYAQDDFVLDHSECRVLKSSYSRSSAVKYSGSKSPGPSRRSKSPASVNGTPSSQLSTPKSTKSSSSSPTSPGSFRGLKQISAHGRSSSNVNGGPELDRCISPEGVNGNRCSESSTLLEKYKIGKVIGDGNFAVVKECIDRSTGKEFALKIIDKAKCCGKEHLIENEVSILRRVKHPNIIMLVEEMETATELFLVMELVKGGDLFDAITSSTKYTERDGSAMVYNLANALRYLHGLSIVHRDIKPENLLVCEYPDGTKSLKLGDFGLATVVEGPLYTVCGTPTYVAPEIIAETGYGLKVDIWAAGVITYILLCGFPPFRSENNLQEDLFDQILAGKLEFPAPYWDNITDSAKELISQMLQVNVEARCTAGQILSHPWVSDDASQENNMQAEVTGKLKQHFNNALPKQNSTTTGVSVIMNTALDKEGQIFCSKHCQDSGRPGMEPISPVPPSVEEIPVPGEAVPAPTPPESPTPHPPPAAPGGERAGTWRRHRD
# Outline: as §1
# [9] = target: T9, CLK2 (Homo sapiens, UniProt P49760); settings: read-out: Inhibitory effect (%) CLK2
# T9 construct: purchased Proqinase, Germany
# T9 sequence (P49760 whole entry): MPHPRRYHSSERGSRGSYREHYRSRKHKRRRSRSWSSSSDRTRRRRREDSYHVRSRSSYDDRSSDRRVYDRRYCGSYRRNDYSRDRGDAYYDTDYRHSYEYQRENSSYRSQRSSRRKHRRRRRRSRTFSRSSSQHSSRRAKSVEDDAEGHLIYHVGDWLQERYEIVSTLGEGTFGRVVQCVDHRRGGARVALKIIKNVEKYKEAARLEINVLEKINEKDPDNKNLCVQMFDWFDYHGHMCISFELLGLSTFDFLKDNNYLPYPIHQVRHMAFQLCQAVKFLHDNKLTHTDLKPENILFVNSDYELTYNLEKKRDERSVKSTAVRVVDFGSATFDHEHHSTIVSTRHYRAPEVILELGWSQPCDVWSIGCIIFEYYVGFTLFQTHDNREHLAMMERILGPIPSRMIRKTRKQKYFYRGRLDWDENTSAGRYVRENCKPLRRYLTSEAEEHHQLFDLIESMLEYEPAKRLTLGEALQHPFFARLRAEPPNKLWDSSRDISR
# Outline: as §1
# T1 sequence (P43250 whole entry): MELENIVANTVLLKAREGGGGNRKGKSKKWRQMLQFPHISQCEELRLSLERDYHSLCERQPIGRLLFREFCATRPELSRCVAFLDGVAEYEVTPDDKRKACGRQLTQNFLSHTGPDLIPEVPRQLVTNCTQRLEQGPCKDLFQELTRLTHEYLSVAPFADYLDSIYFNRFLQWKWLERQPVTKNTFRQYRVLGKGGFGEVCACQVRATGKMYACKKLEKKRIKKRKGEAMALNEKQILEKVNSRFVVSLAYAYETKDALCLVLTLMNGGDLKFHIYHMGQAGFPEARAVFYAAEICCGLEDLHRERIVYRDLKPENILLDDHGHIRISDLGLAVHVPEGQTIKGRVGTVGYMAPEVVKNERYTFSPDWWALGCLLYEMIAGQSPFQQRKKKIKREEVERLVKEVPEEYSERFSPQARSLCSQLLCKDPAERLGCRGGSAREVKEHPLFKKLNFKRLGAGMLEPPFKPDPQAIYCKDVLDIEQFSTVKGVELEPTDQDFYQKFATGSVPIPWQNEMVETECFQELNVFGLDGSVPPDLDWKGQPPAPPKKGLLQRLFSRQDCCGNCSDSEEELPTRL
SMILES,inhibition at 0.1 µM [1] [%],inhibition at 0.1 µM [2] [%],inhibition at 0.1 µM [3] [%],inhibition at 0.1 µM [4] [%],inhibition at 0.1 µM [5] [%],inhibition at 0.1 µM [6] [%],inhibition at 0.1 µM [7] [%],inhibition at 0.1 µM [8] [%],inhibition at 0.1 µM [9] [%]
CN1CCC(=O)NCCNc2ccn3ncc(c3n2)-c2cccc(c2)C1 [OD29],0.04,6.23,5.45,5.44,-11.2,-21.2,-0.26,-15.9,7.62
CN1CCc2cccc(c2)Nc2nccc(n2)N2CCCc3cc(ccc32)C1 [OD16],-2.14,-7.23,32.2,-11,4.48,-5.35,42.6,-2.18,-10
"c1ccc2c(-c3cnn4cc(-c5ccc(N6CCNCC6)cc5)cnc34)ccnc2c1 [LDN-193189, reference compound]",-1.81,-13.4,-23.1,-21.3,3.93,-21.7,13.1,9.12,34.2
